In patent US20080119515A1, “Heterocyclic Kinase Inhibitors: Methods of Use and Synthesis” (priority 2003, published 2008):

Target: T1, ZAP-70 (Homo sapiens, UniProt P43403)
T1 sequence (P43403 1-619): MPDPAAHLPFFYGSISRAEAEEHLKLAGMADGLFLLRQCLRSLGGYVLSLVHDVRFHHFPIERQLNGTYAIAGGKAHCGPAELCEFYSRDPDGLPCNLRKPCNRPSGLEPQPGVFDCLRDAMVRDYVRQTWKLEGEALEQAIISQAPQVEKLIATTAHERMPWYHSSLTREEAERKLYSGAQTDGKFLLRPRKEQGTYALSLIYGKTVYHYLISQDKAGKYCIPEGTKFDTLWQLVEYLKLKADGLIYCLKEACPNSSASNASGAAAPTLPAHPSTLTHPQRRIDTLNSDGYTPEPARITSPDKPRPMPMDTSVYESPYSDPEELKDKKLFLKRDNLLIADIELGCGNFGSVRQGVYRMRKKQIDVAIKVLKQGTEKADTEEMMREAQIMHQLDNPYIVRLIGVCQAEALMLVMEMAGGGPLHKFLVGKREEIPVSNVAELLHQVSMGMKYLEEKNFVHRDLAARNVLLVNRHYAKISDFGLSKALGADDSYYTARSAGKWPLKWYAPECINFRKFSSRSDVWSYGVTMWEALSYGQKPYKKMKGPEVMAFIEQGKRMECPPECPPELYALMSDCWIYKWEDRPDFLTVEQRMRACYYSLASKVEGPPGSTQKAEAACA
Experiment: DELFIA assay (ZAP-70 kinase, phosphorylation of biotinylated poly(glu,tyr))
Type: biochemical
Settings: ZAP-70 DELFIA, class symbols; read-out: Activity (IC50 in vitro)
Summary of the method: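 3.1 nM ZAP-70 pre-incubated 10 min at room temperature with compound ([…]) and 62.5 nM biotinylated poly(glu,tyr) in 62.5 mM Mops pH 7.0, 12.5 mM MgCl2, 12.5% glycerol, 6.25% DMSO (pre-incubation concentrations); ATP added from 5 mM stock, 30 min reaction, EDTA stop. Phosphorylation read by DELFIA europium anti-phosphotyrosine fluorescence (340/615).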

Structure (SMILES)	IC50
N#Cc1ccc(-c2ccc3nc(N[C@@H]4c5ccccc5C[C@@H]4O)cc(C(=O)N4CCC[C@H]4CN4CCCC4)c3c2)cc1 [Compound 209]	> 10000 nM
O=C(c1cc(Cc2ccc(N3CCN(CCc4ccncc4)CC3)cc2)nc2ccc(-c3ccc4c(c3)OCO4)cc12)N1CCCC1CN1CCCC1 (stereo not shown) [Compound 444]	< 1000 nM
O=C(c1cc(NCc2ccc(C(F)(F)F)cc2)nc2c(Cl)cc(-c3ccc4c(c3)OCO4)cc12)N1CCC[C@H]1CN1CCCC1 [Compound 384]	< 1000 nM
N#Cc1ccc(-c2ccc3nc(NCCc4ccc(Br)cc4)cc(C(=O)N4CCC[C@H]4CN4CCCC4)c3c2)cc1 [Compound 243]	> 10000 nM
COc1ccc(CNc2cc(C(=O)N3CCC[C@H]3CN3CCCC3)c3cc(-c4ccc(C#N)cc4)ccc3n2)cc1 [Compound 152]	> 10000 nM
O=C(c1cc(Nc2ccccc2)nc2ccc(-c3ccc4c(c3)OCO4)cc12)N1CCC[C@H]1CN1CCCC1 [Compound 13]	< 1000 nM
c1cc(N2CCNCC2)ccc1Nc1cc(Nc2ccc(N3CCNCC3)cc2)c2cc(-c3ccc4c(c3)OCO4)ccc2n1 [Compound 449]	< 1000 nM
CN(CCc1ccccc1)c1cc(C(=O)N2CCC[C@H]2CN2CCCC2)cc(/C=C/c2ccccc2)n1 [Compound 365]	1000 to 10000 nM
O=C(c1cc(N2CCC(N3CCCC3)CC2)nc2ccc(-c3ccc4c(c3)OCO4)cc12)N1CCC[C@H]1CN1CCCC1 [Compound 64]	1000 to 10000 nM
C[C@H](Nc1cc(C(=O)N2CCC[C@H]2CN2CCCC2)c2cc(-c3ccc(C#N)cc3)ccc2n1)[C@H](O)c1ccccc1 [Compound 317]	< 1000 nM
O=C(c1cc(N[C@H]2CCc3ccccc32)nc2ccc(-c3ccc4c(c3)OCO4)cc12)N1CCC[C@H]1CN1CCCC1 [Compound 41]	< 1000 nM
O=C(c1cc(NCc2ccc(C(F)(F)F)cc2)nc2ccc(-c3ccccc3Cl)cc12)N1CCC[C@H]1CN1CCCC1 [Compound 347]	> 10000 nM
O=C(c1cc(NCc2ccc(C(F)(F)F)cc2)nc2ccc(-c3ccc4c(c3)OCO4)cc12)N1CC=C[C@H]1CN1CCCC1 [Compound 411]	< 1000 nM
